Assay results published in ChEMBL document CHEMBL1201862, “PubChem BioAssay data set” (2004).
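1) Cells in 96-well plates. 2) Compound, 48 h, 5 concentrations. 3) Linear interpolation between surrounding doses. 4) Unreached endpoint = highest concentration. Abbreviation: GI50, concentration required for 50% inhibition of growth.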 The source made the active and inactive calls. No stated cut-off is given here; in the data, active = GI50 up to about 1.1 µM and inactive = higher.

Columns and labels:
Assay in all cases: NCI anticancer screen, dose series, 48 h
HCT-116 = tested on: HCT-116
A549 = tested on: A549
OVCAR-8 = tested on: OVCAR-8
SR = tested on: SR
SK-MEL-28 = tested on: SK-MEL-28
MOLT-4 = tested on: MOLT-4
HL-60 = tested on: HL-60
OVCAR-3 = tested on: OVCAR-3
HOP-62 = tested on: HOP-62
UACC-62 = tested on: UACC-62
M14 = tested on: M14
K562 = tested on: K562
SW-620 = tested on: SW-620
U-251 = tested on: U-251
ACHN = tested on: ACHN
LOX IMVI = tested on: LOX IMVI

Measured: GI50

C#Cc1ccccc1N1C(=O)C=CC1=O
inactive: HCT-116 > 100 µM | A549 > 100 µM | OVCAR-8 > 100 µM | SR > 100 µM | SK-MEL-28 > 100 µM | MOLT-4 > 100 µM | HL-60 > 100 µM | OVCAR-3 > 100 µM | HOP-62 > 100 µM | UACC-62 > 100 µM | M14 > 100 µM | K562 > 100 µM | SW-620 > 100 µM | U-251 > 100 µM | ACHN > 100 µM

O=C(Nc1nc2ncn(CCO)c2c(=S)[nH]1)c1ccccc1
inactive: HCT-116 > 100 µM | A549 > 100 µM | OVCAR-8 > 100 µM | SR > 100 µM | HL-60 > 100 µM | OVCAR-3 > 100 µM | HOP-62 > 100 µM | UACC-62 > 100 µM | M14 > 100 µM | K562 > 100 µM | SW-620 > 100 µM | U-251 > 100 µM | LOX IMVI > 100 µM | ACHN > 100 µM

Cc1nc2cc(N)c(F)cc2[nH]1
inactive: A549 > 100 µM | OVCAR-8 > 100 µM | SR > 100 µM | SK-MEL-28 > 100 µM | MOLT-4 > 100 µM | HL-60 > 100 µM | HOP-62 > 100 µM | UACC-62 > 100 µM | K562 > 100 µM | SW-620 > 100 µM | U-251 > 100 µM | LOX IMVI > 100 µM | ACHN > 100 µM

CC(C)=CC(=O)CC(=O)C(=O)NCCNC(=O)C(=O)CC(=O)C=C(C)C
inactive: HCT-116 > 50 µM | A549 > 50 µM | OVCAR-8 > 50 µM | SK-MEL-28 > 50 µM | OVCAR-3 > 50 µM | HOP-62 > 50 µM | UACC-62 > 50 µM | M14 > 50 µM | SW-620 > 50 µM | U-251 > 50 µM | LOX IMVI > 50 µM | ACHN > 50 µM

COC(=O)C(Cc1nc2ccc(Cl)cc2nc1O)/C(=N\N)C(=O)Nc1cc(C)c(Cl)cc1S(=O)(=O)O (configuration not stated)
inactive: HCT-116 > 100 µM | A549 > 100 µM | OVCAR-8 > 100 µM | SR 99.8 µM | SK-MEL-28 > 100 µM | MOLT-4 > 100 µM | OVCAR-3 > 100 µM | HOP-62 > 100 µM | UACC-62 > 100 µM | M14 > 100 µM | K562 > 100 µM | SW-620 > 10 µM | U-251 > 100 µM | LOX IMVI > 100 µM | ACHN > 100 µM

CCOC(=O)C(OCC1CC=CCC1)Sc1ccccc1 (configuration not stated)
inactive: HCT-116 > 100 µM | A549 > 100 µM | OVCAR-8 > 100 µM | SR 1.77 µM | SK-MEL-28 > 100 µM | HL-60 > 100 µM | OVCAR-3 > 100 µM | HOP-62 > 100 µM | UACC-62 > 100 µM | M14 > 100 µM | K562 > 100 µM | SW-620 > 100 µM | U-251 > 100 µM | LOX IMVI > 100 µM | ACHN > 100 µM

O=C1C=C2CCCC2C(C(=O)O)(C(=O)O)C1 (configuration not stated)
inactive: HCT-116 > 100 µM | A549 > 100 µM | OVCAR-8 > 100 µM | SK-MEL-28 > 100 µM | MOLT-4 > 100 µM | HL-60 > 100 µM | OVCAR-3 > 100 µM | HOP-62 > 100 µM | UACC-62 > 100 µM | M14 > 100 µM | K562 > 100 µM | SW-620 > 100 µM | U-251 > 100 µM | LOX IMVI > 100 µM

CC(C)NC(C)C(C)c1ccccc1 (configuration not stated)
inactive: HCT-116 > 100 µM | A549 > 100 µM | OVCAR-8 > 100 µM | SK-MEL-28 > 100 µM | MOLT-4 > 100 µM | OVCAR-3 > 100 µM | HOP-62 > 100 µM | UACC-62 > 100 µM | M14 > 100 µM | K562 > 100 µM | SW-620 > 100 µM | U-251 > 100 µM | LOX IMVI > 100 µM | ACHN > 100 µM

CC(C)(C)C1=CC(=C2C(=O)C(=O)c3ccccc3C2=O)C=C(C(C)(C)C)C1=O
inactive: HCT-116 19.2 µM | A549 > 100 µM | OVCAR-8 51.3 µM | SK-MEL-28 > 100 µM | HL-60 29.4 µM | OVCAR-3 33 µM | HOP-62 > 100 µM | UACC-62 32.7 µM | M14 37.5 µM | K562 32.1 µM | SW-620 36 µM | U-251 > 100 µM | LOX IMVI 37.1 µM | ACHN 83.9 µM

COc1ccc(C(=O)O/N=C2\CCCC\C2=C/c2ccccc2)cc1
inactive: HCT-116 > 100 µM | A549 > 100 µM | OVCAR-8 > 100 µM | SK-MEL-28 > 100 µM | MOLT-4 > 100 µM | HL-60 > 100 µM | HOP-62 45.3 µM | UACC-62 > 100 µM | M14 > 100 µM | K562 > 10 µM | SW-620 > 100 µM | U-251 57.3 µM | LOX IMVI > 100 µM | ACHN 67.3 µM

COC1[C@H](NC(=O)OC(C)(C)C)C(=O)N1Cc1ccccc1 (some centres not stated)
inactive: HCT-116 > 100 µM | A549 > 100 µM | OVCAR-8 > 100 µM | SK-MEL-28 > 100 µM | MOLT-4 > 100 µM | HL-60 > 100 µM | OVCAR-3 > 100 µM | HOP-62 > 100 µM | UACC-62 > 100 µM | M14 > 100 µM | K562 > 100 µM | SW-620 > 100 µM | U-251 > 100 µM | LOX IMVI > 100 µM | ACHN > 100 µM

CC(C)C(=O)N[C@@H](C)C(=O)N(Cc1ccc2ccccc2c1)N=O
inactive: HCT-116 68.9 µM | A549 82.4 µM | OVCAR-8 > 100 µM | SK-MEL-28 > 100 µM | MOLT-4 39.4 µM | OVCAR-3 62.7 µM | HOP-62 > 100 µM | UACC-62 48 µM | M14 84.1 µM | K562 36.1 µM | SW-620 55.5 µM | U-251 72.4 µM | LOX IMVI 46 µM | ACHN > 100 µM

Cc1ccc(C2=NO[C@@H]3C(=O)N(c4ccc(Cc5ccc(N6C(=O)[C@H]7C(c8ccc(C)cc8)=NO[C@H]7C6=O)cc5)cc4)C(=O)[C@H]23)cc1
inactive: A549 > 100 µM | OVCAR-8 > 100 µM | SK-MEL-28 > 100 µM | MOLT-4 > 10 µM | HL-60 > 100 µM | OVCAR-3 > 100 µM | HOP-62 > 100 µM | UACC-62 > 100 µM | M14 > 100 µM | K562 > 100 µM | SW-620 > 100 µM | U-251 > 100 µM | LOX IMVI > 100 µM | ACHN > 100 µM

CCCC(=O)C(CC)/C(CCC(=O)N(Cc1ccccc1)Cc1ccccc1)=N/NC(=O)C[N+](C)(C)C (configuration not stated)
inactive: HCT-116 > 100 µM | A549 > 100 µM | OVCAR-8 > 100 µM | SR > 100 µM | SK-MEL-28 > 100 µM | MOLT-4 > 100 µM | HL-60 > 100 µM | OVCAR-3 > 100 µM | HOP-62 > 100 µM | M14 > 100 µM | K562 > 100 µM | SW-620 > 100 µM | U-251 > 100 µM | ACHN > 100 µM
